According to patent publication US12433902B2, “Liposomal formulations for inhibiting SARS-CoV-2 replication and reducing lung inflammation” (priority 2021, dated 2025):
Where a name gives a salt, the structure may show the parent alone.

What was measured:
[1] = cited from earlier work
[2] = Toxicity observation at the 20 μg dose of BUD; type: in vivo, C57BL/6 mice; conditions: 20 μg dose of BUD
SARS-CoV-2 = conditions: cited from earlier work

Which half-life ([1]; BUD alone in the lungs) does the source give for CCCC1O[C@@H]2C[C@H]3[C@@H]4CCC5=CC(=O)C=C[C@]5(C)[C@H]4[C@@H](O)C[C@]3(C)[C@]2(C(=O)CO)O1 (some centres unmarked) [budesonide] here?
The half-life was “about 36 hours”.

What about the “effective life in the lungs” value ([1]; BUD alone) of the same compound?
The value was “slightly more than one day”.

And the “toxicity to the spleen, liver, bone marrow, skin or the gastrointestinal tract” value [2]?
The value was “without evidence of toxicity”.

Which SARS-CoV-2 growth (SARS-CoV-2; high doses (e.g., 100 μg/mL)) does the source give for CN(C)C(=O)COC(=O)Cc1ccc(OC(=O)c2ccc(NC(=N)N)cc2)cc1 [camostat mesylate] here?
The SARS-CoV-2 growth was “reduce SARS-CoV-2 growth partially”.

Which “viral growth in vitro” value (SARS-CoV-2) does the source give for “human recombinant soluble ACE2: human recombinant soluble ACE2” here?
The value was “reduces viral growth in vitro”.
